Test results as given in PubChem BioAssay AID1328 (NMMLSC, 2008).
Active and inactive are the calls of the source. No rule for the calls is given here.

These molecules were tested against Apoptosis regulator Bcl-2 (Homo sapiens) (UniProt P10415) (assay: Bim-Bcl-2 binding modulators, biochemical, multiplexed, high-throughput, human Bcl-2 (AID 1328)). Conditions: Bead-based flow cytometry, fluorescent Bim peptide-Bcl-2 binding.
Chain of Apoptosis regulator Bcl-2 (Homo sapiens) (P10415 whole entry, looked up): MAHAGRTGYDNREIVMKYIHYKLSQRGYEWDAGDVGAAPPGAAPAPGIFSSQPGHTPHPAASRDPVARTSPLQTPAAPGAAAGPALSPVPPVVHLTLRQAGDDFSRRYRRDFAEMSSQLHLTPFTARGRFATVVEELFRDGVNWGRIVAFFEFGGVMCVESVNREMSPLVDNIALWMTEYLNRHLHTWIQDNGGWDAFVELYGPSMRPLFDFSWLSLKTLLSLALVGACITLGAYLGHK

| SMILES | EC50 |
| --- | --- |
| CN(C)[C@@H]1C(=O)C(C(=O)NCN2CCCC2)=C(O)[C@@]2(O)C(=O)C3=C(O)c4c(O)cccc4[C@@](C)(O)C3CC12 (stereo not given in full) | inactive |
| COc1cc(/C=N/Nc2nn3cnnc3c3ccccc23)ccc1O | inactive |
| CCC(=O)N(CC)C1=C(O)c2ccccc2C(=O)C1=O | inactive |

The remaining lines, values ahead:

| EC50 | SMILES |
| --- | --- |
| inactive | Clc1ccc2c(N/N=C/c3ccccc3Br)ccnc2c1 |
| inactive | O=[N+]([O-])c1ccc(N/N=C/c2ccc(O)c(O)c2O)c(S(=O)(=O)N2CCOCC2)c1 |
